By Cmax is commonly meant the maximum level reached in the sampled fluid or tissue. The Tmax is the time from dosing to the highest level. For orientation: logP means a log measure of how a compound divides between an organic and an aqueous phase. Read a high logP as a more lipophilic compound. In general, solubility refers to how much of the substance goes into solution per volume.

From patent publication US20060287316A1, “METHOD FOR IMPROVING PHARMACOKINETICS OF PROTEASE INHIBITORS AND PROTEASE INHIBITOR PRECURSORS” (priority 2005, published 2006) come the findings set out here.

Data set [1] is described as follows: Plasma concentration after single oral dose in rats (in vivo cleavage of the phosphate group). Further details: species or system male Sprague-Dawley rats. The note with it: 50 mg/Kg po, vehicle Mix, 3 rats. The method, then: To assess the extent of in vivo cleavage of the phosphate group from the putative compounds, PL-100, PL-462 (based on PL-100), PL-337 and PL-515 (based on PL-337) compounds were administered po (per os, (i.e., by mouth)) (50 mg/kg) to male Sprague-Dawley rats and their plasma concentration measured at different time intervals post-administration.
All test articles (PL-100, PL-462, PL-337 and PL-515) were prepared in different vehicle at the final concentration of 25 mg/mL. The vehicle composition is as follows: (1) 20% ethanol; 50% propylene glycol; 0.05% w/v Tween 20 and water (Mix); (2) PBS buffer (PBS).
Test articles were administered to male Sprague-Dawley rats at a single oral dose of 50 mg/kg. Each article was tested in three rats. Blood samples (0.2-0.3 mL) were collected at the post-dose time of 10, 20, 40, 60, 120, 180 and 360 minutes. The harvested blood was centrifuged to isolate plasma. The resulting plasma was separated and stored at −70° C.
Plasma samples together with standards and quality control samples were treated to precipitate proteins, then analyzed by HPLC-MS, for the presence of PL-462, PL-100, PL-515 and PL-337.

Data set [2] can be described thus: Partition coefficient (LogP), octanol / phosphate buffer. Format: physicochemical. The note with it: octanol / phosphate buffer pH 7.4. An excerpt:
The concentration of the compounds in the phases was detected by LC-MS.

A further data set can be described thus: Water solubility. The format is physicochemical.
Data set [3] is described as follows: Pharmacokinetics of PL-100 and PL-461 in rats. The format is in vivo, Sprague Dawley rats (Rattus norvegicus). As for the experimental part: Animal tested are Sprague Dawley rats (species Rattus norvegicus) of 6-7 weeks old at the start of dosing and were obtained from Charles River (Montreal, Canada). The study usually comprises about 6 animals per groups. […] The rats were fasted 3 h. before dosing and 3 h. after dosing. The formulations are prepared as indicated below. The solutions are stable at room temperature over a week and are covered with aluminum foil to avoid lights. […] The dosing volume for all formulations is 2 mL per kg body weight. Blood sample was collected at 15 min, 30 min, 45 min, 1 […] after the dosing. Blood samples were centrifuged to separate the plasma and separated plasma samples were placed into cryovials and frozen at -80° C. for further analysis. Plasma samples together with standards and quality control samples were treated by protein precipitation and then analyzed by HPLC-MS. […] The PK profile was obtained by administration of the test drugs; PL-100 and PL-461 in rats. […] The pharmacokinetic parameters of PL-100 and PL-461 in rats** was compared.

The nature of data set [4]: Study 4: ritonavir administered first, PL-461 15 or 30 minutes later. Format: in vivo, Sprague Dawley rats. To be noted: test compound 15 or 30 minutes later, compared with the method of studies 1-3.

≈ marks a conversion by molar mass, not a printed value. Bounds are passed on as bounds.

Regarding `COC(=O)N[C@H](C(=O)NCCCC[C@@H](CO)N(CC(C)C)S(=O)(=O)c1ccc(N)c(F)c1)C(c1ccccc1)c1ccccc1` [PL-337, (1-{5-[(4-amino-3-fluoro-benzenesulfonyl)-isobutyl-amino]-6-hydroxy-hexylcarbamoyl}-2,2-diphenyl-ethyl)-carbamic acid methyl ester], in data set [1], the AUC is listed as 1.180 ± 0.196 μg/hr * ml. In data set [1] (male, Sprague-Dawley, rat, plasma), this compound had a Cmax of 681 ± 131 nM. Further, the Tmax in data set [1] (male, Sprague-Dawley, rat, plasma, read-out: Tmax (converted)) was 1 h. The same compound returned a logP in data set [2] of 3.8.

For `COC(=O)N[C@H](C(=O)NCCCC[C@@H](COP(=O)(O)O)N(CC(C)C)S(=O)(=O)c1ccc(N)cc1)C(c1ccccc1)c1ccccc1` [PL-461, (1S,5S)-(1-{5-[(4-amino-benzenesulfonyl)-isobutyl-amino]-6-phosphonooxy-hexylcarbamoyl}-2,2-diphenyl-ethyl)-carbamic acid methyl ester], in the data set “Water solubility”, the “Fold more water soluble than PL-100” value is recorded as greater than 1800 fold. The Water solubility entry is “moderate water solubility” in the data set “Water solubility” (acidic conditions (FIG. 4)) and “increases dramatically” in the data set “Water solubility” (pH>4.5 (FIG. 4)). Further, the solubility in the data set “Water solubility” (water, pH 7.5, aqueous buffer) is 145 mg/mL (≈ 206 mM). The “Fold improved oral bioavailability over PL-100” value in data set [3] (female, Sprague Dawley, rat, in vivo, po) is 2-3 fold. Further, the “Plasma levels of the Lysine-based compound” value in data set [3] (rats, after oral dosing, compared to plasma levels of PL-100) is “insignificant or under detection limits”. In addition, the “Increase of pharmacokinetics by sequential administration” value in data set [4] is “as efficient at increasing the pharmacokinetics”.
